{
  "source": "paper PMC8540140",
  "about": "“The Real Cytotoxic Effect of Artemisinins on Colon Cancer Cells in a Physiological Cell Culture Setting. How Composition of the Culture Medium Biases Experimental Findings” (Pharmaceuticals, 2021)",
  "key": {"[1]": {"system": "SW620 cells", "test": "FITC Annexin V/PI flow cytometry apoptosis assay, SW620", "assay_type": "cell-based, human", "conditions": "for cells in late apoptosis SW620: with LA 40 and TRFi addition", "description": "(§1) The cells were cultured and harvested under the conditions mentioned in Cell Culture and Treatment and seeded in 6-well plates (2 × 10^5 cells per well). […] The apoptotic effect of compounds was measured using the Annexin V:FITC assay kit (Sigma Aldrich) in accordance with the protocols provided. After 72 h treatment both floating and adherent cells were harvested. The floating cells were collected by centrifugation at 700× g for 5 min at 4 °C. Adherent cells were first trypsinized and then collected by centrifugation at 700× g for 5 min at 4 °C. Both fractions were resuspended in Annexin V binding buffer, pooled and incubated with FITC Annexin V and PI for 15 min at room temperature in the dark and analyzed by flow cytometry (Becton Dickinson). A total of 10,000 events were collected. Annexin V:FITC positive and PI negative cells were recognized as early apoptosis and Annexin V:FITC and PI positive cells as late apoptosis or necrosis."}, "[2]": {"system": "SW620 human metastatic colon cancer cell line", "test": "MTT cytotoxicity assay, SW620", "assay_type": "cell-based", "conditions": "SW-620, 72 h, LA 20 or 40 µM, TRFi 50 µM where named in the label", "quoted_text": "The cytotoxic effects of tested compounds were assessed by MTT (3-(4,5-dimethylthiazol-2-yl)-2,5-diphenyltetrazolium bromide) assay. […] Obtained purple formazan product was dissolved in DMSO with isopropanol (1:1) and the optical density was measured at 570 nm. […] The relative MTT level (%) was calculated according formula [A]/[B] × 100. [A] express the absorbance of the test sample whereas [B] the absorbance of the control sample (untreated cells. IC50 values were calculated using CompuSyn version 1.0."}, "[3]": {"test": "FITC Annexin V/PI flow cytometry apoptosis assay, HaCaT", "assay_type": "cell-based, human", "conditions": "human, HaCaT cells; read-out: Q1 viable cells HaCaT", "description": "as §1"}, "[4]": {"system": "HaCaT cells", "test": "FITC Annexin V/PI flow cytometry apoptosis assay, HaCaT", "assay_type": "cell-based, human", "conditions": "with LA 40 and TRFi addition", "description": "as §1"}, "[5]": {"system": "SW620 cells", "test": "Trypan blue exclusion viability assay, SW620", "assay_type": "cell-based, human", "conditions": "8 µM with LA (40 µM), 72 h, TB assay", "description": "(§2) Next, the cells were harvested by treatment with 0.25% trypsin-0.02% EDTA (Gibco Life Technologies, Carslabad, CA USA) and seeded in 96-well plates (1 × 10^4 cells per well) for MTT assay or in 6-well plates (4 × 10^4 cells per well) for Trypan blue exclusion method. […] The cells treated only with 20 µM LA were used as a control. All experimental settings were repeated with holo-transferrin (TRFi) at pharmacological concentration (50 µM). All cells were cultured for a period of 72 h.\n(§3) After a 72 h incubation with serial concentration of experimental compounds the cells were washed in PBS and harvested with trypsin. The viability was estimated by trypan blue exclusion assay using an automated cell counter (Countess Invitrogen). Experiments were performed in triplicate."}, "[6]": {"system": "SW480 human primary colon cancer cell line", "test": "MTT cytotoxicity assay, SW480", "assay_type": "cell-based", "conditions": "72 h, LA 20 or 40 µM, TRFi 50 µM where named in the label", "description": "(§4) The human cell lines SW480 (primary colon cancer), SW620 (lymph node metastatic from the same patient as SW480), and HaCaT (immortalized keratinocyte) were obtained from the American Type Culture Collection (ATCC, Rockville, USA). SW480 and SW620 cells were grown in MEM (minimal essential medium, ThermoSci, USA), and HaCaT in DMEM high glucose (Dulbecco’s Modified Eagle’s Medium, Biowest SAS, France) supplemented with 10% FBS (fetal bovine serum), HEPES (20 mM), and antibiotics (100 U/mL of penicillin and 100 μg/mL of streptomycin). The cells were maintained in a humidified incubator at 37 °C/5% CO2 until 80–90% confluence was reached.\nas §2\n(§5) The cytotoxic effects of tested compounds were assessed by MTT (3-(4,5-dimethylthiazol-2-yl)-2,5-diphenyltetrazolium bromide) assay. This assay is based on the metabolic reduction of soluble MTT into an insoluble colored formazan product by mitochondrial dehydrogenase activity of viable cells. After 72 h incubation in the presence of experimental compounds the cells were incubated at 37 °C with MTT solution (0.5 mg/mL) for 4h. Obtained purple formazan product was dissolved in DMSO with isopropanol (1:1) and the optical density was measured at 570 nm. Each experiment was performed in triplicate. The cytotoxicity of compounds was presented as a percent of MTT reduced in treated cells vs. control cells. The relative MTT level (%) was calculated according formula [A]/[B] × 100. [A] express the absorbance of the test sample whereas [B] the absorbance of the control sample (untreated cells. IC50 values were calculated using CompuSyn version 1.0."}, "[7]": {"system": "HaCaT human immortal keratinocyte cell line", "test": "MTT cytotoxicity assay, HaCaT", "assay_type": "cell-based", "conditions": "for IC50: Homo sapiens, HaCaT, MTT, 72 h; for cytotoxic effect on HaCaT cells: combination with LA40 and TRFi", "description": "as §4, §2, §5"}, "[8]": {"system": "SW480 cells", "test": "Trypan blue exclusion viability assay, SW480", "assay_type": "cell-based, human", "conditions": "8 µM with LA (40 µM), 72 h, TB assay", "description": "as §2, §3"}, "[9]": {"system": "HCT-116 cells", "parameters": "method as in ref 37 (Lu et al. 2014)", "conditions": "40 μM, 72 h; ref 37 (Lu et al. 2014); cited from earlier work"}, "[10]": {"system": "SW480 cells", "test": "FITC Annexin V/PI flow cytometry apoptosis assay, SW480", "assay_type": "cell-based", "conditions": "Homo sapiens, SW480, 72 h; read-out: Q1 viable cells SW480", "description": "as §1"}, "[11]": {"system": "SW948 cells", "parameters": "method as in ref 36 (Lu et al. 2018)", "conditions": "48 h, ref 36 (Lu et al. 2018), cited from earlier work"}, "[12]": {"system": "IL-6 secreted by SW480 cells", "test": "Interleukin-6 ELISA in culture medium, SW480", "assay_type": "cell-based, human", "conditions": "added to ART-LA or DHA-LA (20 and 40 µM), 72 h; all studied settings", "description": "(§6) The level of interleukin-6 (IL-6) secreted by SW480 and SW620 cells was measured by commercial human IL-6 ELISA kits (Diaclon SAS, Besancon Cedex, France). […] The untreated cells were used as the control. The IL-6 level in a cell culture supernatant was determined by an enzyme-linked immunosorbent assay, according to the manufacturer’s protocol. The experiment was repeated three times."}, "[13]": {"system": "IL-6 secreted by SW620 cells", "test": "Interleukin-6 ELISA in culture medium, SW620", "assay_type": "cell-based, human", "conditions": "added to ART-LA or DHA-LA (20 and 40 µM), 72 h; all studied settings except ART-LA20", "description": "as §6"}, "[14]": {"conditions": "with TRFi 50 µM, read-out: IC50 HaCaT at the presence of TRFi"}, "[15]": {"conditions": "LA 20 or 40 µM, TRFi 50 µM where named in the label, read-out: IC50 HaCaT"}},
  "note": "Where two headings read alike, the source gives them in different places.",
  "data": [
    {"compound": "C[C@@H]1CC[C@H]2[C@@H](C)C(=O)O[C@@H]3O[C@@]4(C)CC[C@@H]1[C@]32OO4", "note": "[ART, Artemisinin]", "values": [
      {"measurement": "cells in late apoptosis SW620", "setting": "[1]", "result": 90, "unit": "%"},
      {"measurement": "IC50", "setting": "[2]", "result": "42.8 ± 4.6", "unit": "µM"},
      {"measurement": "viability at 72 h, 2 µM", "setting": "[3]", "result": 80.8, "unit": "%"},
      {"measurement": "late apoptosis HaCaT", "setting": "[4]", "result": 25.68, "unit": "%"},
      {"measurement": "viability SW620", "setting": "[5]", "result": "48 ± 2.8", "unit": "%"},
      {"measurement": "IC50", "setting": "[6]", "result": "39 ± 2.75", "unit": "µM"},
      {"measurement": "IC50", "setting": "[7]; [14]", "result": 187, "unit": "µM"},
      {"measurement": "IC50", "setting": "[7]; [15]", "result": "203 ± 16.2", "unit": "µM"},
      {"measurement": "cytotoxic effect on HaCaT cells", "setting": "[7]", "result": "no cytotoxic effect"},
      {"measurement": "viability SW480", "setting": "[8]", "result": "39 ± 2.8", "unit": "%"}
    ]},
    {"compound": "C[C@H]1[C@@H](O)O[C@@H]2O[C@@]3(C)CC[C@H]4[C@H](C)CC[C@@H]1[C@@]24OO3", "note": "[DHA, dihydroartemisinin]", "values": [
      {"measurement": "viability HCT-116", "setting": "[9]", "result": 40, "unit": "%"},
      {"measurement": "viability at 2 µM", "setting": "[1]; Homo sapiens, SW-620, 72 h, read-out: Q1 viable cells SW620", "result": 72.4, "unit": "%"},
      {"measurement": "cells in late apoptosis SW620", "setting": "[1]", "result": 90, "unit": "%"},
      {"measurement": "IC50", "setting": "[2]", "result": "11.9 ± 2.3", "unit": "µM"},
      {"measurement": "viability at 72 h, 2 µM", "setting": "[3]", "result": 73.7, "unit": "%"},
      {"measurement": "late apoptosis HaCaT", "setting": "[4]", "result": 42.80, "unit": "%"},
      {"measurement": "viability at 2 µM", "setting": "[10]", "result": 60.7, "unit": "%"},
      {"measurement": "viability SW620", "setting": "[5]", "result": "42 ± 2.1", "unit": "%"},
      {"measurement": "IC50", "setting": "[6]", "result": "11.4 ± 1.67", "unit": "µM"},
      {"measurement": "IC50", "setting": "[7]; [14]", "result": 129, "unit": "µM"},
      {"measurement": "IC50", "setting": "[7]; [15]", "result": "116 ± 5.5", "unit": "µM"},
      {"measurement": "cytotoxic effect on HaCaT cells", "setting": "[7]", "result": "no cytotoxic effect"},
      {"measurement": "viability SW948", "setting": "[11]; 30 µM", "result": 45, "unit": "%"},
      {"measurement": "viability SW948", "setting": "[11]; 50 µM", "result": 24, "unit": "%"},
      {"measurement": "viability SW480", "setting": "[8]", "result": "35 ± 1.8", "unit": "%"}
    ]},
    {"compound": "COc1cccc2c1C(=O)c1c(O)c3c(c(O)c1C2=O)C[C@@](O)(C(=O)CO)C[C@@H]3O[C@H]1C[C@H](N)[C@H](O)[C@H](C)O1", "note": "[DOX, doxorubicin]", "values": [
      {"measurement": "IC50", "setting": "[6]", "result": "0.75 ± 0.1", "unit": "µM"},
      {"measurement": "IC50", "setting": "[7]; [15]", "result": "0.29 ± 0.1", "unit": "µM"}
    ]},
    {"compound": "TRFi: holotransferrin, iron-binding protein added to culture medium at 50 µM", "values": [
      {"measurement": "effect of TRFi addition on IL-6 concentration SW480", "setting": "[12]", "result": "increased IL-6 concentration"},
      {"measurement": "effect of TRFi addition on IL-6 concentration SW620", "setting": "[13]", "result": "increased IL-6 concentration"}
    ]}
  ]
}
